Laboratory results: patent publication US11241455B2, “Methods of treating disease by metabolic control of T-cell differentiation” (The J. David Gladstone Institutes, a testamentary trust …, priority 2016, dated 2022)

Columns and labels:
Assay type in all cases: cell-based, mouse
[1] = test system: FOXP3 mRNA in iTreg cells; assay: mRNA expression analysis by qRT-PCR in iTreg cells; conditions: normalized to β-actin
Description: At the end of differentiation (day 6), T cells were re-stimulated with plate-coated anti-CD3 and anti-CD28 for 5 hours in the absence of any small-molecule compounds or metabolites. Quantitative reverse transcriptase polymerase chain reaction (qRT-PCR) was performed to evaluate mRNA expression of FOXP3, Il17, Il17f, and Rorc. For differentiating TH17 or iTreg cells, cells were collected on day 2.5 or at the indicated time for mRNA expression analysis. The expression was normalized to β-actin.

[2] = test system: differentiating iTreg cells; assay: 15N-α-glutamine flux analysis (transamination) in differentiating iTreg cells
Description: CD4 naïve T cells, differentiating TH17 or iTreg cells (68 hours) were incubated with fresh media prior to labeling. The cells were then cultured for 4 hours at 37° C. with medium where the glutamine was replaced with the corresponding stable isotope label: 2 mM U-^13C glutamine or 2 mM ^15N-α-glutamine for 4 hours at 37° C. The cells were quickly collected and quickly washed with phosphate buffer saline (PBS), pelleted, and snap frozen in liquid nitrogen. The frozen samples were kept in −80° C. until extraction. Cell extracts were prepared by first adding 80/20 MeOH/H2O at −60° C. to the frozen pellets and collecting the supernatant after centrifugation at 4° C. The extracted samples were analyzed by high-resolution liquid-chromatography-mass spectrometry. Unlabeled glutamine-fed cells were used as background.
For amino acid profiling: The ultra-high pressure liquid chromatography (U-HPLC) system consisted of a Thermo Fisher Scientific (San Jose, USA) U-HPLC pumping system, coupled to an autosampler and degasser. Chromatographic separation of the intracellular metabolites was achieved by usage of a reversed phase Atlantis® T3 (3 μm, 2.1 mm ID×150 mm) column (Waters, Eschborn, Germany) and by implementation of a gradient elution program. […]

[3] = test system: differentiating iTreg cells; assay: iTreg differentiation of CD4 naïve T cells (FOXP3-GFP reporter or intracellular staining of FOXP3); conditions: AOA added after 24 hours, analyzed at end of differentiation
Description: CD4 naïve T cells (CD4+CD25-CD62^highCD44^low) were obtained from interleukin (IL)-17F-red fluorescent protein (RFP)/FOXP3-green fluorescent protein (GFP) mice, which were characterized previously, or wild-type C57/BL6 mice, by cell sorting. 0.4 million cells were plated into 48 wells coated with anti-mouse CD3 (clone 145-2C11, eBioscience) […] and anti-mouse CD28 (clone 37.51, eBioscience) (1 μg/ml). The differentiation media for these naïve T cells was as follows: 0.5 ng/ml (or indicated) transforming growth factor (TGF) β, 200 U/ml mouse IL-2, 2 μg/ml anti-interferon (IFN) γ and 2 μg/ml anti-mouse IL4 for differentiation into iTreg cells; and 2.5 ng/ml TGFβ, 10 ng/ml mouse IL-1β, 10 ng/ml mouse IL-6, 10 ng/ml mouse IL-23, 2 μg/ml anti-mouse IFNγ, and anti-mouse IL-4 for differentiating into TH17 cells. The cells were supplemented with new medium at day 4. In cases in which small-molecule compounds were present, the fresh medium containing the same concentration of compounds was used. When necessary, the individual metabolite was added into the T-cell culture 6 hours later after initial cell plating. […]

## NOCC(=O)O [AOA, (aminooxy)-acetic acid]
[1]
  FOXP3 mRNA expression: promoted transcription of FOXP3
[2]; differentiating iTreg cells fed 2 mM 15N-α-glutamine for 4 hours
  reduction of total intracellular 15N-α-aspartate: 75%
[2]; differentiating iTreg cells, 2 mM 15N-α-glutamine for 4 hours
  de novo synthesis for several amino acids (15N label incorporation): significant decreases
[3]
  iTreg cell induction under iTreg differentiation conditions: dose-dependently promote iTreg cell induction
